First the molecules themselves.
B1: Flu-CLASPIN_pS945 peptide (peptide)
peptide: GGMEELLNLCSGKFTSQ
modifications: not fully specified

The target in assay [1] is T1, CHK1-KD (CHK1 construct consisting of only the kinase domain, CHK1(1-290)) (Homo sapiens, UniProt O14757).
T1 sequence (O14757 1-290): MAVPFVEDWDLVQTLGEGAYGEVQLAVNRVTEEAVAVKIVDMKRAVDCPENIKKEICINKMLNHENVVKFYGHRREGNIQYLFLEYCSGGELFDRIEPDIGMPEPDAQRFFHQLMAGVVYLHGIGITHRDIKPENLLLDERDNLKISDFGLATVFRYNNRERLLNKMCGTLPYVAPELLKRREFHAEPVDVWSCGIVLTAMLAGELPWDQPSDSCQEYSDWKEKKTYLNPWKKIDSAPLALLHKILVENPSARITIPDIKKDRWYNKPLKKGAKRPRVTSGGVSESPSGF
Put plainly: Fluorescence polarization binding of CLASPIN peptides to CHK1-KD. Conditions: FP, phosphorylated peptide.

The target in assay [2] is T2, CHK1-KD (CHK1 construct consisting of only the kinase domain) (Homo sapiens, UniProt O14757).
T2 sequence (O14757 1-290): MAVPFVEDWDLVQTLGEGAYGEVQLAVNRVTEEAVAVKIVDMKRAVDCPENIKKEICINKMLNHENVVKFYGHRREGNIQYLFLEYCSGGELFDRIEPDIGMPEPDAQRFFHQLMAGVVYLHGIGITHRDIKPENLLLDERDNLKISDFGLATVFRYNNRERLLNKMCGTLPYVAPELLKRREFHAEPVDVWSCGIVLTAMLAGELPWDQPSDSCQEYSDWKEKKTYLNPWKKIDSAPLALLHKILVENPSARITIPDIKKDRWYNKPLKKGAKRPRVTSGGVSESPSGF
It is filed as binding.

The target in assay [3] is T3, CHK1 kinase domain (CHK1-KD), STREP-(3C)-CHK1(1–290)-HIS (human, UniProt O14757 1-290).
T3 sequence: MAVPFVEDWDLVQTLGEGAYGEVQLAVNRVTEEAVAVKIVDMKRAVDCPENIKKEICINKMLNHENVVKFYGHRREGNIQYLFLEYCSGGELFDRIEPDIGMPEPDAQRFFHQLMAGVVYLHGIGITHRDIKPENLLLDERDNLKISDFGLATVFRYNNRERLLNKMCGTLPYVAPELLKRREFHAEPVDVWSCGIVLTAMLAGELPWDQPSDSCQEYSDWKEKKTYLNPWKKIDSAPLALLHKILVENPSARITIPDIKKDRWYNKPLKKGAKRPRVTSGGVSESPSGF
Briefly: fluorescence polarisation.

The target of assay [4] is B1. Briefly: fluorescence polarisation.

Non-standard residues stand in square brackets, D forms with d. Residues, ends and D or L forms follow the SMILES beside them. No end group written: not given here. *: point of attachment. 5FAM = O=C1OC2(c3ccc(O)cc3Oc3cc(O)ccc32)c2ccc(C(=O)*)cc21; pT = C[C@@H](OP(=O)(O)O)[C@H](N)C(=O)O; pS = N[C@@H](COP(=O)(O)O)C(=O)O

Regarding `CSCC[C@H](NC(=O)CNC(=O)CNC(=O)c1ccc2c(c1)C(=O)OC21c2ccc(O)cc2Oc2cc(O)ccc21)C(=O)N[C@@H](CCC(=O)O)C(=O)N[C@@H](CCC(=O)O)C(=O)N[C@@H](CC(C)C)C(=O)N[C@@H](CC(C)C)C(=O)N[C@@H](CC(N)=O)C(=O)N[C@@H](CC(C)C)C(=O)N[C@@H](CS)C(=O)N[C@@H](COP(=O)(O)O)C(=O)NCC(=O)N[C@@H](CCCCN)C(=O)N[C@@H](Cc1ccccc1)C(=O)N[C@H](C(=O)N[C@@H](CO)C(=O)N[C@@H](CCC(N)=O)C(=O)O)[C@@H](C)O` [pS945] (5FAM-GGMEELLNLC[pS]GKFTSQ-OH), the “affinity for CHK1-KD (in words)” value in assay [1] was “high nanomolar range”.
With `CSCC[C@H](NC(=O)CNC(=O)CNC(=O)c1ccc2c(c1)C(=O)OC21c2ccc(O)cc2Oc2cc(O)ccc21)C(=O)N[C@@H](CCC(=O)O)C(=O)N[C@@H](CCC(=O)O)C(=O)N[C@@H](C)C(=O)N[C@@H](CC(C)C)C(=O)N[C@@H](C)C(=O)N[C@@H](CC(C)C)C(=O)N[C@@H](CS)C(=O)N[C@@H](COP(=O)(O)O)C(=O)NCC(=O)N[C@@H](CO)C(=O)N[C@@H](Cc1ccccc1)C(=O)N1CCC[C@H]1C(=O)N[C@H](C(=O)N[C@@H](CC(=O)O)C(=O)O)[C@@H](C)O` [pS982] (5FAM-GGMEEALALC[pS]GSFPTD-OH), in assay [1], the “affinity for CHK1-KD (in words)” value is listed as “high nanomolar range”.
On the same count and under the same terms, the value for `CSCC[C@H](NC(=O)CNC(=O)CNC(=O)c1ccc2c(c1)C(=O)OC21c2ccc(O)cc2Oc2cc(O)ccc21)C(=O)N[C@@H](CC(=O)O)C(=O)N[C@@H](CCC(=O)O)C(=O)N[C@@H](CC(C)C)C(=O)N[C@@H](CC(C)C)C(=O)N[C@@H](CC(=O)O)C(=O)N[C@@H](CC(C)C)C(=O)N[C@@H](CS)C(=O)N[C@H](C(=O)NCC(=O)N[C@@H](CCCCN)C(=O)N[C@@H](Cc1ccccc1)C(=O)N[C@H](C(=O)N[C@@H](CO)C(=O)N[C@@H](CCC(N)=O)C(=O)O)[C@@H](C)O)[C@@H](C)OP(=O)(O)O` [pT916] (5FAM-GGMDELLDLC[pT]GKFTSQ-OH) was “high nanomolar range”.
For the molecule “MEELLNLC[pS]GKFTSQ [CLASPIN pS945 peptide]”, the “effect on affinity of CHK1-KD for CDC25C substrate peptide” value in assay [2] was “no significant difference”.
Turning to B1, in assay [3], the binding result is recorded as “binds”.

B2: Flu-CLASPIN_pS982 peptide (peptide)
peptide: GGMEEALALCSGSFPTD
modifications: not fully specified; fluorescein on the N-terminus; phosphoserine at 982 (pS982)
For B2, the binding result in assay [3] is recorded as “binds”.

B3: Flu-CLASPIN_pT916 peptide (peptide)
peptide: GGMDELLDLCTGKFTSQ
modifications: not fully specified; fluorescein on the N-terminus; phosphothreonine at 916 (pT916)
Turning to B3, the binding result in assay [3] is reported as “binds”.

B4: full-length CHK1, STREP-(3C)-CHK1-HIS, treated with λ-phosphatase (enzyme)
chain: MAVPFVEDWDLVQTLGEGAYGEVQLAVNRVTEEAVAVKIVDMKRAVDCPENIKKEICINKMLNHENVVKFYGHRREGNIQYLFLEYCSGGELFDRIEPDIGMPEPDAQRFFHQLMAGVVYLHGIGITHRDIKPENLLLDERDNLKISDFGLATVFRYNNRERLLNKMCGTLPYVAPELLKRREFHAEPVDVWSCGIVLTAMLAGELPWDQPSDSCQEYSDWKEKKTYLNPWKKIDSAPLALLHKILVENPSARITIPDIKKDRWYNKPLKKGAKRPRVTSGGVSESPSGFSKHIQSNLDFSPVNSASSEENVKYSSSQPEPRTGLSLWDTSPSYIDKLVQGISFSQPTCPDHMLLNSQLLGTPGSSQNPWQRLVKRMTRFFTKLDADKSYQCLKETCEKLGYQWKKSCMNQVTISTTDRRNNKLIFKVNLLEMDDKILVDFRLSKGDGLEFKRHFLKIKGKLIDIVSSQKIWLPAT
As for B4, in assay [4], the “fold lower affinity than CHK1-KD” value worked out at 2 fold.

These data come from article PMC8204404 (Structure(London, England:1993), 2021).
